{"source": "ChEMBL document CHEMBL1142790", "about": "“Carbonic anhydrase inhibitors: inhibition of the transmembrane isozyme XIV with sulfonamides” (Bioorg Med Chem Lett, 2005)", "data": [{"target": "Carbonic anhydrase 12 (Homo sapiens, UniProt O43570)", "sequence (O43570 whole entry)": "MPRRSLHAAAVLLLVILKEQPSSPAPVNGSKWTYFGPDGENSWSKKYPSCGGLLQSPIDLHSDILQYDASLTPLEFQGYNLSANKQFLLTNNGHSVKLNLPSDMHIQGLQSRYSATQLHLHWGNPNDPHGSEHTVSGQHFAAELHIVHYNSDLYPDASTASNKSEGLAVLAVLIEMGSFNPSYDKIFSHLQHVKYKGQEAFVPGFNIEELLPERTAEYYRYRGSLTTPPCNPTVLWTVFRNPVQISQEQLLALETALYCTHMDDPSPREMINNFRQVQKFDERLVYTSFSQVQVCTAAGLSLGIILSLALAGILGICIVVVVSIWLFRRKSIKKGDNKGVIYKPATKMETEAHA", "units": {"Ki": "µM"}, "values": [{"smiles": "NNc1ccc(S(N)(=O)=O)cc1", "Ki": 0.011}, {"smiles": "Nc1cccc(S(N)(=O)=O)c1", "Ki": 0.125}, {"smiles": "Nc1ccccc1S(N)(=O)=O", "Ki": 0.085}]}, {"target": "Carbonic anhydrase 14 (Homo sapiens, UniProt Q9ULX7)", "sequence (Q9ULX7 whole entry)": "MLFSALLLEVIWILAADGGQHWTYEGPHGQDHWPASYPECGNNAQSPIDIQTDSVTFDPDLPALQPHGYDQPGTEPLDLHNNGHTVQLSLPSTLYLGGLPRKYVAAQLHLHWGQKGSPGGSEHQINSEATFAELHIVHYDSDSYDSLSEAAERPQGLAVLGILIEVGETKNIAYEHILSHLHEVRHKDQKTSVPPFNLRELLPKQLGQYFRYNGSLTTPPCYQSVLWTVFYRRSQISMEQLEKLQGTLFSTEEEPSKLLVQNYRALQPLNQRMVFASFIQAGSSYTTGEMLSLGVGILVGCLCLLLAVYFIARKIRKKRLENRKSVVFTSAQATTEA", "units": {"Ki": "µM"}, "values": [{"smiles": "Nc1nccc(Nc2ccc(S(N)(=O)=O)cc2)n1", "Ki": 0.089}, {"smiles": "NS(=O)(=O)c1ccc(CCO)cc1", "Ki": 3.26}, {"smiles": "NNc1ccc(S(N)(=O)=O)cc1", "Ki": 1.45}, {"smiles": "CCN[C@H]1CN(CCCOC)S(=O)(=O)c2sc(S(N)(=O)=O)cc21", "note": "[BRINZOLAMIDE]", "Ki": 0.024}, {"smiles": "Cn1nc(S(N)(=O)=O)sc1=N", "Ki": 0.245}, {"smiles": "Nc1nnc(S(N)(=O)=O)s1", "Ki": 0.28}, {"smiles": "Nc1ccc(S(=O)(=O)Nc2nnc(S(N)(=O)=O)s2)cc1", "Ki": 0.013}, {"smiles": "Nc1ccc(S(N)(=O)=O)cc1F", "Ki": 0.18}, {"smiles": "Nc1ccc(S(N)(=O)=O)cc1", "note": "[SULFANILAMIDE]", "Ki": 5.4}, {"smiles": "NS(=O)(=O)c1ccc(CO)cc1", "Ki": 3.84}, {"smiles": "Nc1ccc(S(N)(=O)=O)cc1Br", "Ki": 0.015}, {"smiles": "Nc1cccc(S(N)(=O)=O)c1", "Ki": 4.8}, {"smiles": "Nc1ccccc1S(N)(=O)=O", "Ki": 6.5}, {"smiles": "NS(=O)(=O)c1ccc(C(=O)O)cc1", "note": "[CARZENIDE]", "Ki": 0.78}, {"smiles": "Nc1ccc(S(N)(=O)=O)cc1Cl", "Ki": 0.021}, {"smiles": "Nc1ccc(S(=O)(=O)NCCc2ccc(S(N)(=O)=O)cc2)cc1", "Ki": 0.076}, {"smiles": "NCc1ccc(S(N)(=O)=O)cc1", "note": "[MAFENIDE]", "Ki": 3.2}]}]}
